{"source": "patent US20090176817A1", "about": "“Method of Treatment of Diarrhea-Predominant Irritable Bowel Syndrome in a Subject” (priority 2005, published 2009)", "test_system": "diarrhea-predominant IBS subjects", "experiment": "Study S241.3.006: weekly diary questions on adequate relief", "type": "in vivo, human", "settings": "for Number of months a subject was a responder: One month (Abdominal pain/discomfort) / Number of months a subject was a responder: One month (Abnormal bowel habits) / Number of months a subject was a responder: One month (IBS symptoms) / Number of months a subject was a responder: Three months (Abdominal pain/discomfort) / Number of months a subject was a responder: Three months (Abnormal bowel habits) / Number of months a subject was a responder: Three months (IBS symptoms) / Number of months a subject was a responder: Two months (Abdominal pain/discomfort) / Number of months a subject was a responder: Two months (Abnormal bowel habits) / Number of months a subject was a responder: Two months (IBS symptoms) / Number of months a subject was a responder: Zero months (Abdominal pain/discomfort) / Number of months a subject was a responder: Zero months (Abnormal bowel habits) / Number of months a subject was a responder: Zero months (IBS symptoms): monthly LOCF", "experimental": "The study was conducted in 129 study centers in the United States. At total of 2080 subjects consented to participate, and 711 subjects were randomized. A total of 692 subjects were analyzed for efficacy and 701 subjects were analyzed for safety. Diagnosis and main criteria for inclusion were IBS subjects satisfying the Rome I criteria (1992); the diarrhea predominant sub-population of the Rome II criteria; and a minimum abdominal pain/discomfort, stool frequency and consistency determined during the run-in period. Subjects were treated with cilansetron 2 mg tablets given orally TID or matching placebo tablets given orally TID for 12 weeks double-blind treatment.\nThe primary efficacy parameter was the number of months that a subject was a responder for IBS symptoms (abdominal pain, abdominal discomfort, abnormal bowel habits) over the 12-week treatment period. A responder for a month (monthly responder) was defined as a subject who answered the weekly question with “yes” at least twice for that month.\nStudies S24 1.3.OO6, S24 1.3.0 1 1, and S24 1.3.009 used the following efficacy measurements: • The subjects answered the following three questions with “yes” or “no” using a phone diary at the end of each week: • a) During the last week, did you experience adequate relief of your IBS symptoms, such as abdominal pain, abdominal discomfort, abnormal bowel habits? • b) During the last week, did you experience adequate relief of your abdominal pain and/or discomfort? • c) During the last week, did you experience adequate relief of your abnormal bowel habits? • The subjects rated the following symptoms using the phone diary at the end of each day: • abdominal pain/discomfort (five-point scale); • stool consistency (seven-point Bristol Stool Scale); • stool frequency (number of bowel movements each day); • urgency (five-point scale); • straining (yes or no); • feeling of incomplete defecation (yes or no); • bloating or feeling of abdominal distension (five-point scale). • In Studies S241 A006 and S241.3.009, subjects completed the IBS-QOL Survey at Baseline (Day 1) and at the end of treatment. In Study S24 1.3.0 1 1, subjects completed the IBS-QOL Survey at Baseline (Day 1), at the end of the three-month treatment period, and at the end of rerandomized treatment.\nIn all three pivotal efficacy studies, the primary and main secondary efficacy parameters were based on the weekly diary questions on adequate relief and included the following: • 1. Number of months (one month equals four weeks) that a subject was a responder for the weekly diary questions on adequate relief. A responder for a month (monthly responder) was defined as a subject who answered the weekly question with “yes” at least twice for that month. For Studies S241.3.006 and S241.3.011, the primary efficacy parameter was the number of months that a subject was a responder for IBS symptoms during the 12-week treatment period. The two main secondary efficacy parameters were the number of months that a subject was a responder for abdominal pain/discomfort and abnormal bowel habits during the 12-week treatment period. For Study S241.3.009, the number of months that a subject was a responder for the weekly diary questions on adequate relief during Months 1 to 3 (the first 12 weeks) and Months 1 to 6 (24-week) was an additional key secondary efficacy parameter. • 2. Overall responder rate for the weekly diary questions on adequate relief. A responder was defined as a subject who answered the weekly question with “yes” for at least half of the answers available with a minimum of four weeks treatment duration. If a subject had less than four weeks treatment duration, the subject was considered a non-responder. The overall responder rate was the percentage of responders within a treatment group. For Study S241.3.009, the primary efficacy parameter was the overall responder rate for IBS symptoms during the 26-week treatment period. […]", "key": {"[1]": {"settings": "Duration of IBS: >24 months to ≦48 months, 2 mg TID, observed case, ITT"}, "[2]": {"settings": "Duration of IBS: >24 months to ≦48 months, three-month treatment period, ITT, 2 mg TID"}, "[3]": {"settings": "Duration of IBS: >48 months to ≦120 months, 2 mg TID, observed case, ITT"}, "[4]": {"settings": "Duration of IBS: >48 months to ≦120 months, three-month treatment period, ITT, 2 mg TID"}, "[5]": {"settings": "Duration of IBS: >120 months, 2 mg TID, observed case, ITT"}, "[6]": {"settings": "Duration of IBS: >120 months, three-month treatment period, ITT, 2 mg TID"}, "[7]": {"settings": "Duration of IBS: ≦24 months, 2 mg TID, observed case, ITT"}}, "data": [{"molecule": "Cc1nccn1C[C@H]1CCc2c(c3cccc4c3n2CCC4)C1=O", "note": "[Cilansetron, (R)-(−)-4,5,6,8,9,10-hexahydro-10-[(2-methyl-1H-imidazol-1-yl)methyl]-11H-pyrido-[3,2,1-jk]-carbazol-11-one]", "values": [{"measurement": "Overall responder rate, adequate relief of abnormal bowel habits", "setting": "Baseline severity of IBS: severe, three-month treatment period, observed case, ITT, 2 mg TID", "value": "90 (46) n (%)"}, {"measurement": "Overall responder rate, abdominal pain/discomfort", "setting": "Caucasians", "value": 52, "unit": "%"}, {"measurement": "Number of subjects who were responders during the three-month treatment period: Adequate relief of IBS symptoms", "setting": "[1]", "value": "20 (47) n (%)"}, {"measurement": "Number of subjects who were responders during the three-month treatment period: Adequate relief of abdominal pain/discomfort", "setting": "[1]", "value": "22 (51) n (%)"}, {"measurement": "Number of subjects who were responders during the three-month treatment period: Adequate relief of abnormal bowel habits", "setting": "[1]", "value": "20 (47) n (%)"}, {"measurement": "Number of months a subject was a responder: One month (Abdominal pain/discomfort)", "setting": "[2]", "value": "8 (19) n (%)"}, {"measurement": "Number of months a subject was a responder: One month (Abnormal bowel habits)", "setting": "[2]", "value": "10 (23) n (%)"}, {"measurement": "Number of months a subject was a responder: One month (IBS symptoms)", "setting": "[2]", "value": "12 (28) n (%)"}, {"measurement": "Number of months a subject was a responder: Three months (Abdominal pain/discomfort)", "setting": "[2]", "value": "15 (35) n (%)"}, {"measurement": "Number of months a subject was a responder: Three months (Abnormal bowel habits)", "setting": "[2]", "value": "13 (30) n (%)"}, {"measurement": "Number of months a subject was a responder: Three months (IBS symptoms)", "setting": "[2]", "value": "14 (33) n (%)"}, {"measurement": "Number of months a subject was a responder: Two months (Abdominal pain/discomfort)", "setting": "[2]", "value": "6 (14) n (%)"}, {"measurement": "Number of months a subject was a responder: Two months (Abnormal bowel habits)", "setting": "[2]", "value": "7 (16) n (%)"}, {"measurement": "Number of months a subject was a responder: Two months (IBS symptoms)", "setting": "[2]", "value": "4 (9) n (%)"}, {"measurement": "Number of months a subject was a responder: Zero months (Abdominal pain/discomfort)", "setting": "[2]", "value": "14 (33) n (%)"}, {"measurement": "Number of months a subject was a responder: Zero months (Abnormal bowel habits)", "setting": "[2]", "value": "13 (30) n (%)"}, {"measurement": "Number of months a subject was a responder: Zero months (IBS symptoms)", "setting": "[2]", "value": "13 (30) n (%)"}, {"measurement": "Number of subjects who were responders during the three-month treatment period: Adequate relief of IBS symptoms", "setting": "[3]", "value": "54 (52) n (%)"}, {"measurement": "Number of subjects who were responders during the three-month treatment period: Adequate relief of abdominal pain/discomfort", "setting": "[3]", "value": "58 (56) n (%)"}, {"measurement": "Number of subjects who were responders during the three-month treatment period: Adequate relief of abnormal bowel habits", "setting": "[3]", "value": "54 (52) n (%)"}, {"measurement": "Number of months a subject was a responder: One month (Abdominal pain/discomfort)", "setting": "[4]", "value": "12 (12) n (%)"}, {"measurement": "Number of months a subject was a responder: One month (Abnormal bowel habits)", "setting": "[4]", "value": "12 (12) n (%)"}, {"measurement": "Number of months a subject was a responder: One month (IBS symptoms)", "setting": "[4]", "value": "15 (14) n (%)"}, {"measurement": "Number of months a subject was a responder: Three months (Abdominal pain/discomfort)", "setting": "[4]", "value": "40 (38) n (%)"}, {"measurement": "Number of months a subject was a responder: Three months (Abnormal bowel habits)", "setting": "[4]", "value": "37 (36) n (%)"}, {"measurement": "Number of months a subject was a responder: Three months (IBS symptoms)", "setting": "[4]", "value": "35 (34) n (%)"}, {"measurement": "Number of months a subject was a responder: Two months (Abdominal pain/discomfort)", "setting": "[4]", "value": "18 (17) n (%)"}, {"measurement": "Number of months a subject was a responder: Two months (Abnormal bowel habits)", "setting": "[4]", "value": "19 (18) n (%)"}, {"measurement": "Number of months a subject was a responder: Two months (IBS symptoms)", "setting": "[4]", "value": "19 (18) n (%)"}, {"measurement": "Number of months a subject was a responder: Zero months (Abdominal pain/discomfort)", "setting": "[4]", "value": "34 (33) n (%)"}, {"measurement": "Number of months a subject was a responder: Zero months (Abnormal bowel habits)", "setting": "[4]", "value": "36 (35) n (%)"}, {"measurement": "Number of months a subject was a responder: Zero months (IBS symptoms)", "setting": "[4]", "value": "35 (34) n (%)"}, {"measurement": "Number of subjects who were responders during the three-month treatment period: Adequate relief of IBS symptoms", "setting": "[5]", "value": "69 (47) n (%)"}, {"measurement": "Number of subjects who were responders during the three-month treatment period: Adequate relief of abdominal pain/discomfort", "setting": "[5]", "value": "72 (49) n (%)"}, {"measurement": "Number of subjects who were responders during the three-month treatment period: Adequate relief of abnormal bowel habits", "setting": "[5]", "value": "73 (50) n (%)"}, {"measurement": "Number of months a subject was a responder: One month (Abdominal pain/discomfort)", "setting": "[6]", "value": "15 (10) n (%)"}, {"measurement": "Number of months a subject was a responder: One month (Abnormal bowel habits)", "setting": "[6]", "value": "14 (10) n (%)"}, {"measurement": "Number of months a subject was a responder: One month (IBS symptoms)", "setting": "[6]", "value": "13 (9) n (%)"}, {"measurement": "Number of months a subject was a responder: Three months (Abdominal pain/discomfort)", "setting": "[6]", "value": "59 (40) n (%)"}, {"measurement": "Number of months a subject was a responder: Three months (Abnormal bowel habits)", "setting": "[6]", "value": "57 (39) n (%)"}, {"measurement": "Number of months a subject was a responder: Three months (IBS symptoms)", "setting": "[6]", "value": "51 (35) n (%)"}, {"measurement": "Number of months a subject was a responder: Two months (Abdominal pain/discomfort)", "setting": "[6]", "value": "19 (13) n (%)"}, {"measurement": "Number of months a subject was a responder: Two months (Abnormal bowel habits)", "setting": "[6]", "value": "19 (13) n (%)"}, {"measurement": "Number of months a subject was a responder: Two months (IBS symptoms)", "setting": "[6]", "value": "22 (15) n (%)"}, {"measurement": "Number of months a subject was a responder: Zero months (Abdominal pain/discomfort)", "setting": "[6]", "value": "53 (36) n (%)"}, {"measurement": "Number of months a subject was a responder: Zero months (Abnormal bowel habits)", "setting": "[6]", "value": "56 (38) n (%)"}, {"measurement": "Number of months a subject was a responder: Zero months (IBS symptoms)", "setting": "[6]", "value": "60 (41) n (%)"}, {"measurement": "Number of subjects who were responders during the three-month treatment period: Adequate relief of IBS symptoms", "setting": "[7]", "value": "25 (49) n (%)"}, {"measurement": "Number of subjects who were responders during the three-month treatment period: Adequate relief of abdominal pain/discomfort", "setting": "[7]", "value": "27 (53) n (%)"}]}]}
